Values quoted from earlier work as cited in patent publication US20100087382A1, “Inhibitors of Hepatitis C NS3 Protease” (BOEHRINGER INGELHEIM INTERNATIONAL GMBH, priority 2007, published 2010).
Read-outs that look alike come from different tables or passages of the source.

Key:
hepatitis C virus [1] = conditions: two day clinical trial, patients infected with hepatitis C virus
hepatitis C virus [2] = conditions: 28- and 14-day clinical trials, in combination with pegylated interferon with or without ribavirin, during treatment

| Compound | viral load in patients (hepatitis C virus [1]) | viral load in patients (hepatitis C virus [2]) |
| --- | --- | --- |
| COc1ccc2c(O[C@@H]3C[C@H]4C(=O)N[C@]5(C(=O)O)C[C@H]5/C=C\CCCCC[C@H](NC(=O)OC5CCCC5)C(=O)N4C3)cc(-c3csc(NC(C)C)n3)nc2c1 [BILN 2061] | effective in rapidly reducing viral loads | – |
| CCC[C@H](NC(=O)[C@@H]1[C@H]2CCC[C@H]2CN1C(=O)[C@@H](NC(=O)[C@@H](NC(=O)c1cnccn1)C1CCCCC1)C(C)(C)C)C(=O)C(=O)NC1CC1 [VX-950] | – | rapidly decreased to undetectable levels |
